Results on five compounds are retold here after patent US7611863B2, “Selective staining of biomembranes using voltage-sensitive dyes” (Max-Planck-Gesellschaft zur Foerderung der Wissenschaften …, priority 2004, dated 2009).

The conditions of data set [1]: upon transfer from water to lecithin membranes; cited from earlier work.
The nature of data set [2]: Dye-lipid binding by fluorescence lipid titration. Format: physicochemical. As to conditions: for average binding constant K to lipid membrane: POPC vesicles, Tris-NaCl buffer pH 8.1, 25° C., dye 0.5 μM; for binding constant to lipid membranes: fluorescence lipid titration, Example 2. As for the experimental part: Dye-lipid binding. The binding of the dyes to lipid membranes was determined by fluorescence lipid titration^21 with large unilamellar vesicles (LUVs) made of 1-palmitoyl-2-oleoyl-phosphatidylcholine (POPC). The purity of the lipids was checked by 2-dimensional TLC^22. The vesicles were made by extrusion^23 in Tris-NaCl buffer (20 mM Tris, 100 mM NaCl, pH 8.1), using an extrusion apparatus and polycarbonate filters with 100 nm pore size (both Avestin Europe, Mannheim, Germany). Vesicle size was determined by quasielastic light scattering using an argon ion laser (Spectra-Physics, Darmstadt, Germany), a photomultiplier (Brookhaven Instruments, Vienna, Austria) and a correlator (ALV-5000, Langen, Germany). The lipid concentration was determined by a chromogenic enzyme assay (Biomerieux, Marcy I'Etoile, France). The standard deviation of three concentration measurements for every vesicle preparation was always below 4%. Vesicles were stored under argon at 4° C. in 15 ml Falcon Centrifuge Tubes (BD Labware Europe, Le Pont de Claix, France) and used within three days.
To measure dye binding constants, we prepared 1 mM solutions of the dyes 1-3 by ultrasonication in Ethanol (1) or Tris-NaCl buffer (2,3). […] In the same buffer, suspensions of POPC vesicles with concentrations ranging from 100 nM to 10 mM were prepared by dilution of stock solutions. Dye and lipid were pre-thermostatted to 25° C. […] The fluorescence emission recorded at 600 nm with excitation at 488 nm was used for the evaluation of the partition coefficients.
Dye binding to lipid. When styryl hemicyanines bind to lipid bilayers, their quantum yield of fluorescence is enhanced. […] We take advantage of that effect to examine the binding of Di-4-ASPP phosphate and Di-4-ASPP alcohol to lipid membranes by fluorescence titration^21. For comparison Di-4-ASPBS was also included in the investigation.
Dispersions of large lipid vesicles (Ø≈100 nm) were made from palmitoyl-oleoyl-phosphatidylcholine (POPC) with lipid concentrations ranging over five orders of magnitude. […] The fluorescence intensity was enhanced with increasing concentration of lipid for all three dyes. The enhancement was shifted to higher lipid concentrations in the order Di-4-ASPP alcohol, Di-4-ASPBS and Di-4-ASPP phosphate.
Binding. The dyes Di-10-phosphato-ASPBS (Di-10P-ASPBS) and Di-12-phosphato-ASPBS (Di-12P-ASPBS) as well as the corresponding products after enzymatic hydrolysis Di-10-hydroxy-ASPBS (Di-10A-ASPBS) and Di-12-hydroxy-ASPBS (Di-12A-ASPBS) were synthesized by organic chemical methods. Their binding to lipid membranes was tested by fluorescence lipid titration (cf. page 15, section dye binding to lipid). The binding constants amounted to 27 M^−1 (Di-10P-ASPBS), 250,000 M^−1 (Di-10A-ASPBS), 2100 M^−1 (Di-12P-ASPBS) and 3,000,000 M^−1 (Di-12P-ASPBS) (FIGS. 14 and 15 (center and right hand side)). The difference in binding constants between dye alcohol and dye phosphates (or dye precursors) therefore amounted to a factor of 10,000 for the pair Di-10P-ASPBS/Di-10A-ASPBS and to a factor of 1000 for the pair Di-12P-ASPBS/Di-12A-ASPBS. The binding curve for the more lipophilic pair Di-12P-ASPBS/Di-12A-ASPBS is shifted to […] lipid concentrations.

The test system of a further data set is HEK 293 cells. In words: Staining of HEK 293 cells by activation of binding through soluble phosphatase. The data set is classed as cell-based. As for the experimental part:
FIG. 12A to F: Staining of HEK 293 cells with a voltage sensitive dye by activation of binding through soluble phosphatase added to the incubation medium. HEK 293 cells (A, brightfield image) were incubated with the voltage sensitive fluorescent dye Di-8-phosphato-ASPBS (cf. FIG. 11, bottom) at a concentration of 19.6 μM. […] The images shown are optimized for contrast and intensity.

Data set [3] has as its system HEK 293 cells expressing fusion protein of plasma membrane anchor and PLAP. As to the kind of experiment: Staining of HEK 293 cells through overexpressed membrane-bound phosphatase. Format: cell-based.
Text: FIG. 13A to C: Staining of transfected HEK 293 cells with a voltage sensitive dye by activation of binding through an overexpressed, membrane-bound phosphatase. HEK 293 cells were cotransfected with a vector coding for GFP and a vector coding for a fusion protein of a plasma membrane anchor and phosphatase from the human placenta. A. fluorescence image showing the GFP fluoresence of a transfected cell (excitation filter 450/50 nm, emission filter 510 nm longpass; dichroic mirror: 505 nm). B. The voltage sensitive fluorescent dye Di-8-phosphato-ASPBS (cf. FIG. 11, bottom) was added to the incubation medium. […] C. […] The images shown are optimized for contrast and intensity.
(§1) FIG. 16. Genetically Targeted Staining of HEK293 cells with 1 mM Di-10P-ASPBS. A mixture of stable clones either expressing the membrane-bound phosphatase construct or cytosolic GFP were cultured on the same dish. (A) From left to right: (i) Brightfield image of cells. (ii) Fluorescence image of cells showing cells expressing cytosolic GFP (excitation filter 450/50 nm, emission filter 510 nm, dichroic mirror 505 nm). (iii) Cells expressing phosphatase as obtained by subtraction of GFP expressing cells from image i. (iv) Fluorescence image of cells with filters exc. 535/50 nm, em. 610/75 nm; dichroic mirror 535 nm. The image is normalized to the same level as in row B. (v) autoleveled image iv, showing fluorescence crosstalk of GFP. (B) Enzyme induced staining of cells as measured with filter set exc. 535/50 nm, em. 610/75 nm; dichroic mirror 535 nm. The membrane fluorescence increases over time. (C). Inverted and contrast-enhanced fluorescence images corresponding to row B. (D) Difference images. The image A/iv was subtracted from the images in row B. The resulting images were inverted and contrast was enhanced.
as §1, with “17.” for “16.”, “200 nM Di-12P-ASPBS.” for “1 mM Di-10P-ASPBS.”, “difference” for “and contrast-enhanced fluorescence images corresponding to row B. (D) Difference”, “enhanced. (D) Contrast enhanced images of row C.” for “enhanced.”
Enzyme induced staining. The dye precursors Di-10P-ASPBS and Di-12P-ASPBS were used to effect enzyme induced staining on cells. To test whether the staining is selective, a mixture of two cell populations was cultured in the same dish. One of these stably expressed the phosphatase construct, while the other was stably expressing GFP as a negative marker.

For data set [4], the system named is Madine Darby Canine Kidney (MDCK) cells. In words: Enzyme induced staining of transiently transfected MDCK cells. Format: cell-based. On the procedure: FIG. 19. Genetically Targeted Staining of MDCK cells with Di-10P-ASPBS and Di-12P-ASPBS. (A) Cells were cotransfected with the membrane-bound phosphatase construct termed ArtPlasMA AP and H2B-GFP, a nucleus-localized transfection marker. Brightfield image and fluorescence images before (−1 sec) and after addition of 200 nM Di-10P-ASPBS. (B) Analogous to row A, but using 200 nM Di-12P-ASPBS. (C) Control experiment. Cells were transfected only with H2B-GFP and incubated with 200 nM Di-12P-ASPBS. Brightfield image and fluorescence images before (−1 sec) and after addition of dye (8 min). (D) Control experiment. Cells were cotransfected with the membrane-bound phosphatase construct termed ArtPlasMA AP and H2B-GFP and incubated with the dye Di-10A-ASPBS. Brightfield image and fluorescence image before (−1 sec) and after addition of dye (20 sec).
Two control experiments were performed: In the first control, cells were transfected only with the transfection marker H2B-GFP. […] In addition, no difference in staining intensity between transfected and untransfected cells can be discerned (FIG. 19C). In the second control experiment, cells were cotransfected with the phosphatase construct and the transfection marker.

The mark [5] stands for this setting: cells cotransfected with ArtPlasMA AP and H2B-GFP, 200 nM.

For the compound `CCCCN(CCCC)c1ccc(C=Cc2cc[n+](CCCCS(=O)(=O)[O-])cc2)cc1` [Di-4-ASPBS, Di-4-ASP butylsulfonate, reference compound], the “increase in fluorescence quantum yield” value in data set [1] is 36 fold. Besides, the “average binding constant K to lipid membrane” value in data set [2] was found to be 7500 ± 440 M⁻¹. In addition, in data set [2] (−RT ln(K/KA)), the “increment of the binding energy Δ(ΔG) relative to the alcohol” value was 0.526 kcal/mol.

In the case of `CCCCN(CCCC)c1ccc(/C=C/c2cc[n+](CCCO)cc2)cc1.[Br-]` [Di-4-ASPP alcohol, 1-[γ-hydroxypropyl]-trans-4-[p-(di-n-butylamino)styryl]-pyridinium bromide], the “average binding constant K to lipid membrane” value in data set [2] turned out to be 17920 ± 360 M⁻¹.

Take Di-8-phosphato-ASPBS: the “permeation of the cell plasma membrane” value in the data set with HEK 293 cells (19.6 μM, 30 minutes, cell interior stained only slightly) was “permeates the cell plasma membrane very slowly”. Also, the “membrane fluorescence before enzyme addition” value with HEK 293 cells (19.6 μM, after 30 minutes, no enzyme) is “no membrane fluorescence could be detected”. Further, in the data set on HEK 293 cells (PLAP 0.18 DEA Units/ml, 15 sec to 6 min), the “membrane fluorescence after addition of soluble PLAP” value is “membrane fluorescence was activated and increased over time”. Moreover, in data set [3] (transfected HEK 293 cell), the “membrane fluorescence directly after dye addition” value is reported as “no membrane fluorescence was visible” and the “membrane staining after 5 min of incubation” value is “the membrane of the transfected cell was clearly stained”. Moreover, in data set [3] (untransfected HEK 293 cells incubated with the dye), the “membrane fluorescence of untransfected control cells” value is “did not show any membrane fluorescence”.

Di-10-hydroxy-ASPBS [Di-10A-ASPBS]: the “binding constant to lipid membranes” value in data set [2] was 250,000 M^−1. In data set [4] (cotransfected with phosphatase construct and H2B-GFP), the “staining by product dye, transfected versus untransfected cells” value was “equally and unselectively stained”.

Di-10-phosphato-ASPBS [Di-10P-ASPBS]: the “binding constant to lipid membranes” value in data set [2] came out at 27 M⁻¹. For the same compound, the “difference in binding constants between dye alcohol and dye phosphate (precursor)” value in data set [2] (pair precursor/product dye) is listed as 10,000 factor. Moreover, in data set [4] (setting [5]), the “localization of staining at beginning of experiment” value is listed as “staining is localized to the transfected cells at the beginning of the experiment” and the “localization of staining over several minutes” value is “the produced dye diffuses to the surrounding, nontransfected cells”. In data set [3] (phosphatase clones and GFP clones in same dish, 1 mM Di-10P-ASPBS, 200 nM Di-12P-ASPBS), the “enzyme induced membrane staining in mixed cell populations” value was “allowed enzyme induced membrane staining”.
